Data reported in US11505543B2, “4-oxo-3,4-dihydroquinazoline compounds as inhibitors of human immunodeficiency virus replication” (VIIV HEALTHCARE UK (NO.5) LIMITED, priority 2018, dated 2022).

Experiments:
[1] = system: recombinant NL4-3 virus (nef section replaced with Renilla luciferase gene) in MT-2 cells; assay: HIV cell culture assay (antiviral activity, luciferase readout); assay type: cell-based; conditions: Renilla, NL43, MT-2 cells infected for 4-5 days with recombinant NL4-3 Renilla luciferase virus, serial dilutions of compound
Experimental: HIV cell culture assay—MT-2 cells, 293T cells and the proviral DNA clone of NL4-3 virus were obtained from the NIH AIDS Research and Reference Reagent Program. MT-2 cells were propagated in RPMI 1640 media supplemented with 10% heat inactivated fetal bovine serum (FBS), 100 μg/ml penicillin G and up to 100 units/mL streptomycin. The 293T cells were propagated in DMEM media supplemented with 10% heat inactivated FBS, 100 μg/mL penicillin G and 100 μg/mL streptomycin. A recombinant NL4-3 proviral clone, in which a section of the nef gene was replaced with the Renilla luciferase gene, was used to make the reference virus used in these studies. The recombinant virus was prepared through transfection of the recombinant NL4-3 proviral clone into 293T cells using Transit-293 Transfection Reagent from Mirus Bio LLC (Madison, Wis.). Supernatent was harvested after 2-3 days and the amount of virus present was titered in MT-2 cells using luciferase enzyme activity as a marker by measuring luciferase enzyme activity. Luciferase was quantitated using the EnduRen Live Cell Substrate from Promega (Madison, Wis.). Antiviral activities of compounds toward the recombinant virus were quantified by measuring luciferase activity in MT-2 cells infected for 4-5 days with the recombinant virus in the presence of serial dilutions of the compound.
The 50% effective concentration (EC50) was calculated by using the exponential form of the median effect equation where (Fa)=1/[1+(ED50/drug conc.)^m] (Johnson VA, Byington RT. Infectivity Assay. In Techniques in HIV Research. ed. Aldovini A, Walker BD. 71-76. New York: Stockton Press. 1990). Curve fitting and analysis were performed with ActivityBase XE Runner software version 9.1.0.4 using model 203 (ID Business Solutions, LTD, Guildford, UK).

[2] = Compound cytotoxicity, XTT-based colorimetric assay; assay type: cell-based; conditions: human, uninfected MT2 cells, day 4, XTT
Experimental: Compound cytotoxicity and the corresponding CC50 values were determined using the same protocol as described in the antiviral assay except that uninfected cells were used. Cytotoxicity was assessed on day 4 in uninfected MT2 cells by using a XTT (2,3-bis[2-Methoxy-4-nitro-5-sulfophenyl]-2H-tetrazolium-5-carboxyanilide inner salt)-based colorimetric assay (Sigma-Aldrich, St Louis, Mo.).

Structure (SMILES)	EC50 [1]	CC50 at 4 day [2]
Cc1cc(-c2ccc3c(=O)n(-c4ccc(Cl)c5c(NS(C)(=O)=O)nn(C)c45)c([C@H](Cc4cc(F)cc(F)c4)NC(=O)Cn4nc(C(F)F)c5c4C(F)(F)[C@@H]4C[C@H]54)nc3c2)ccc1Cl (atropisomer, axis not shown; (aR)) [Example 31, N-((S)-1-(3-(4-chloro-1-methyl-3-(methylsulfonamido)-1H-indazol-7-yl)-7-(4-chloro-3-methylphenyl)-4-oxo-3,4-dihydroquinazolin-2-yl)-2-(3,5-difluorophenyl)ethyl)-2-((3bS,4aR)-3-(difluoromethyl)-5,5-difluoro-3b,4,4a,5-tetrahydro-1H-cyclopropa[3,4]cyclopenta[1,2-c]pyrazol-1-yl)acetamide]	4.7 nM	> 1000 nM
Cn1nc(NS(C)(=O)=O)c2c(Cl)ccc(-n3c([C@H](Cc4cc(F)cc(F)c4)NC(=O)Cn4nc(C(F)F)c5c4C(F)(F)[C@@H]4C[C@H]54)nc4cc(-c5ccc(C(=O)N6CCCCC6)cc5)ccc4c3=O)c21 (atropisomer, axis not shown; (aR)) [Example 34, N-((S)-1-(3-(4-chloro-1-methyl-3-(methylsulfonamido)-1H-indazol-7-yl)-4-oxo-7-(4-(piperidine-1-carbonyl)phenyl)-3,4-dihydroquinazolin-2-yl)-2-(3,5-difluorophenyl)ethyl)-2-((3bS,4aR)-3-(difluoromethyl)-5,5-difluoro-3b,4,4a,5-tetrahydro-1H-cyclopropa[3,4]cyclopenta[1,2-c]pyrazol-1-yl)acetamide]	0.46 nM	> 1000 nM
Cn1nc(NS(C)(=O)=O)c2c(Cl)ccc(-n3c([C@H](Cc4cc(F)cc(F)c4)NC(=O)Cn4nc(C(F)F)c5c4C(F)(F)[C@@H]4C[C@H]54)nc4cc(-c5ccc(F)c(C(=O)O)c5)ccc4c3=O)c21 (atropisomer, axis not shown; (aR)) [Example 38, 5-(3-(4-chloro-1-methyl-3-(methylsulfonamido)-1H-indazol-7-yl)-2-((S)-1-(2-((3bS,4aR)-3-(difluoromethyl)-5,5-difluoro-3b,4,4a,5-tetrahydro-1H-cyclopropa[3,4]cyclopenta[1,2-c]pyrazol-1-yl)acetamido)-2-(3,5-difluorophenyl)ethyl)-4-oxo-3,4-dihydroquinazolin-7-yl)-2-fluorobenzoic acid]	10 nM	> 1000 nM
Cn1nc(NS(C)(=O)=O)c2c(Cl)ccc(-n3c([C@H](Cc4cc(F)cc(F)c4)NC(=O)Cn4nc(C(F)F)c5c4C(F)(F)[C@@H]4C[C@H]54)nc4cc(-c5cnccn5)ccc4c3=O)c21 (atropisomer, axis not shown; (aR)) [Example 39, N-((S)-1-(3-(4-chloro-1-methyl-3-(methylsulfonamido)-1H-indazol-7-yl)-4-oxo-7-(pyrazin-2-yl)-3,4-dihydroquinazolin-2-yl)-2-(3,5-difluorophenyl)ethyl)-2-((3bS,4aR)-3-(difluoromethyl)-5,5-difluoro-3b,4,4a,5-tetrahydro-1H-cyclopropa[3,4]cyclopenta[1,2-c]pyrazol-1-yl)acetamide]	0.052 nM	> 1000 nM
Cn1nc(NS(C)(=O)=O)c2c(Cl)ccc(-n3c([C@H](Cc4cc(F)cc(F)c4)NC(=O)Cn4nc(C(F)F)c5c4C(F)(F)[C@@H]4C[C@H]54)nc4cc(-c5ncccn5)ccc4c3=O)c21 (atropisomer, axis not shown; (aR)) [Example 40, N-((S)-1-(3-(4-chloro-1-methyl-3-(methylsulfonamido)-1H-indazol-7-yl)-4-oxo-7-(pyrimidin-2-yl)-3,4-dihydroquinazolin-2-yl)-2-(3,5-difluorophenyl)ethyl)-2-((3bS,4aR)-3-(difluoromethyl)-5,5-difluoro-3b,4,4a,5-tetrahydro-1H-cyclopropa[3,4]cyclopenta[1,2-c]pyrazol-1-yl)acetamide]	0.025 nM	> 1000 nM
CC(C)c1cccc(-c2ccc3c(=O)n(-c4ccc(Cl)c5c(NS(C)(=O)=O)nn(C)c45)c([C@H](Cc4cc(F)cc(F)c4)NC(=O)Cn4nc(C(F)F)c5c4C(F)(F)[C@@H]4C[C@H]54)nc3c2)c1 (atropisomer, axis not shown; (aR)) [Example 41, N-((S)-1-(3-(4-chloro-1-methyl-3-(methylsulfonamido)-1H-indazol-7-yl)-7-(3-isopropylphenyl)-4-oxo-3,4-dihydroquinazolin-2-yl)-2-(3,5-difluorophenyl)ethyl)-2-((3bS,4aR)-3-(difluoromethyl)-5,5-difluoro-3b,4,4a,5-tetrahydro-1H-cyclopropa[3,4]cyclopenta[1,2-c]pyrazol-1-yl)acetamide]	4.5 nM	> 1000 nM
Cn1nc(NS(C)(=O)=O)c2c(Cl)ccc(-n3c([C@H](Cc4cc(F)cc(F)c4)NC(=O)Cn4nc(C(F)F)c5c4C(F)(F)[C@@H]4C[C@H]54)nc4cc(-c5ccccc5Cl)ccc4c3=O)c21 (atropisomer, axis not shown; (aR)) [Example 43, N-((S)-1-(3-(4-chloro-1-methyl-3-(methylsulfonamido)-1H-indazol-7-yl)-7-(2-chlorophenyl)-4-oxo-3,4-dihydroquinazolin-2-yl)-2-(3,5-difluorophenyl)ethyl)-2-((3bS,4aR)-3-(difluoromethyl)-5,5-difluoro-3b,4,4a,5-tetrahydro-1H-cyclopropa[3,4]cyclopenta[1,2-c]pyrazol-1-yl)acetamide]	0.69 nM	> 1000 nM
Cn1nc(NS(C)(=O)=O)c2c(Cl)ccc(-n3c([C@H](Cc4cc(F)cc(F)c4)NC(=O)Cn4nc(C(F)F)c5c4C(F)(F)[C@@H]4C[C@H]54)nc4cc(-c5cccc(F)c5CO)ccc4c3=O)c21 (atropisomer, axis not shown; (aR)) [Example 44, N-((S)-1-(3-(4-chloro-1-methyl-3-(methylsulfonamido)-1H-indazol-7-yl)-7-(3-fluoro-2-(hydroxymethyl)phenyl)-4-oxo-3,4-dihydroquinazolin-2-yl)-2-(3,5-difluorophenyl)ethyl)-2-((3bS,4aR)-3-(difluoromethyl)-5,5-difluoro-3b,4,4a,5-tetrahydro-1H-cyclopropa[3,4]cyclopenta[1,2-c]pyrazol-1-yl)acetamide]	0.12 nM	> 1000 nM
Cn1nc(NS(C)(=O)=O)c2c(Cl)ccc(-n3c([C@H](Cc4cc(F)cc(F)c4)NC(=O)Cn4nc(C(F)F)c5c4C(F)(F)[C@@H]4C[C@H]54)nc4cc(-c5cccc(C(C)(C)C)c5)ccc4c3=O)c21 (atropisomer, axis not shown; (aR)) [Example 45, N-((S)-1-(7-(3-(tert-butyl)phenyl)-3-(4-chloro-1-methyl-3-(methylsulfonamido)-1H-indazol-7-yl)-4-oxo-3,4-dihydroquinazolin-2-yl)-2-(3,5-difluorophenyl)ethyl)-2-((3bS,4aR)-3-(difluoromethyl)-5,5-difluoro-3b,4,4a,5-tetrahydro-1H-cyclopropa[3,4]cyclopenta[1,2-c]pyrazol-1-yl)acetamide]	4.5 nM	> 1000 nM
COc1cccc(-c2ccc3c(=O)n(-c4ccc(Cl)c5c(NS(C)(=O)=O)nn(C)c45)c([C@H](Cc4cc(F)cc(F)c4)NC(=O)Cn4nc(C(F)F)c5c4C(F)(F)[C@@H]4C[C@H]54)nc3c2)n1 (atropisomer, axis not shown; (aR)) [Example 46, N-((S)-1-(3-(4-chloro-1-methyl-3-(methylsulfonamido)-1H-indazol-7-yl)-7-(6-methoxypyridin-2-yl)-4-oxo-3,4-dihydroquinazolin-2-yl)-2-(3,5-difluorophenyl)ethyl)-2-((3bS,4aR)-3-(difluoromethyl)-5,5-difluoro-3b,4,4a,5-tetrahydro-1H-cyclopropa[3,4]cyclopenta[1,2-c]pyrazol-1-yl)acetamide]	0.56 nM	> 1000 nM
Cn1nc(NS(C)(=O)=O)c2c(Cl)ccc(-n3c([C@H](Cc4cc(F)cc(F)c4)NC(=O)Cn4nc(C(F)F)c5c4C(F)(F)[C@@H]4C[C@H]54)nc4cc(-c5ccc(Cl)cc5)ccc4c3=O)c21 (atropisomer, axis not shown; (aR)) [Example 51, N-((S)-1-(3-(4-chloro-1-methyl-3-(methylsulfonamido)-1H-indazol-7-yl)-7-(4-chlorophenyl)-4-oxo-3,4-dihydroquinazolin-2-yl)-2-(3,5-difluorophenyl)ethyl)-2-((3bS,4aR)-3-(difluoromethyl)-5,5-difluoro-3b,4,4a,5-tetrahydro-1H-cyclopropa[3,4]cyclopenta[1,2-c]pyrazol-1-yl)acetamide]	3.3 nM	> 1000 nM
